Experiments:
MCF7 = test: Antitumor activity against breast carcinoma cell line (MCF-7M); assay type: functional, cell-based; conditions: Homo sapiens
Human alphaherpesvirus 1 = test: Antiviral activity against Herpes simplex virus type 1 (HSV-1) up to 100 uM concentration; inactive; assay type: functional, organism-based
HT-29 = test: Antitumor activity against colon carcinoma cell line (HT-29); assay type: functional, cell-based; conditions: Homo sapiens
SK-MES-1 = test: Antitumor activity against lung carcinoma cell line (SK-MES-1); assay type: functional, cell-based; conditions: Homo sapiens
[1] = system: Human immunodeficiency virus 1; test: Antiviral activity against Human immunodeficiency virus 1 (HIV-1) up to 100 uM concentration; inactive; assay type: functional, organism-based

| Compound | IC50 (MCF7) [µM] | IC50 (Human alphaherpesvirus 1) | IC50 (HT-29) [µM] | IC50 (SK-MES-1) [µM] | IC50 [1] |
| --- | --- | --- | --- | --- | --- |
| Cc1cn([C@@H]2C[C@H](CO)N(O)C2)c(=O)[nH]c1=O | 0.08 | Not Active | 14 | 6.91 | Not Active |
| Cc1cn([C@@H]2C[C@H](CO)N(N=O)C2)c(=O)[nH]c1=O |  | Not Active |  |  | Not Active |
| Cc1cn(C2CNC(CO)C2)c(=O)[nH]c1=O (centres undefined) |  | Not Active |  |  | Not Active |
| COC(=O)N1CC(n2cc(C)c(=O)[nH]c2=O)C[C@H]1CO (some centres undefined) |  | Not Active |  |  | Not Active |
| Cc1cn(C2C[C@@H](CO)N(C=O)C2)c(=O)[nH]c1=O (some centres undefined) |  | Not Active |  |  | Not Active |
| Cc1cn(C2C[C@@H](CO)N(CCC#N)C2)c(=O)[nH]c1=O (some centres undefined) |  | Not Active |  |  | Not Active |
| Cc1cn(C2C[C@@H](CO)N(C#N)C2)c(=O)[nH]c1=O (some centres undefined) |  | Not Active |  |  | Not Active |
| O=c1[nH]cc(F)c(=O)[nH]1 [FLUOROURACIL] |  |  | 0.15 | 0.31 |  |
